In US9969742B2, “Imidazotriazinone compounds” (Ironwood Pharmaceuticals, Inc., priority 2012, dated 2018):
Like-named read-outs stand apart in the source and are kept apart here.

Tests used:
Type in all cases: biochemical
[1] = biological target: T1, PDE1B (Homo sapiens, UniProt Q01064); experiment: Phosphodiesterase enzyme screening assay, PDE1B
T1 construct: purchased Reaction Biology Corporation, Malvern, Pa
Method in brief: (§1)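 Read-out was electrophoretic mobility-shift separation on chip of fluorescent cyclic nucleotide from 5′-AMP/5′-GMP, with inhibition or enhancement judged against control wells (quadruplicate means). Reactions lasted 1 h at RT in HEPES pH 7.5 buffer with MgCl2, DTT and Brij plus 4.0 μM cGMP substrate, then were halted with EDTA stop buffer.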

[2] = biological target: T2, PDE9A2 (Homo sapiens, UniProt O76083); experiment: Phosphodiesterase enzyme screening assay, PDE9A2
T2 construct: purchased Reaction Biology Corporation, Malvern, Pa
T2 sequence (O76083 1-533 isoform O76083-2): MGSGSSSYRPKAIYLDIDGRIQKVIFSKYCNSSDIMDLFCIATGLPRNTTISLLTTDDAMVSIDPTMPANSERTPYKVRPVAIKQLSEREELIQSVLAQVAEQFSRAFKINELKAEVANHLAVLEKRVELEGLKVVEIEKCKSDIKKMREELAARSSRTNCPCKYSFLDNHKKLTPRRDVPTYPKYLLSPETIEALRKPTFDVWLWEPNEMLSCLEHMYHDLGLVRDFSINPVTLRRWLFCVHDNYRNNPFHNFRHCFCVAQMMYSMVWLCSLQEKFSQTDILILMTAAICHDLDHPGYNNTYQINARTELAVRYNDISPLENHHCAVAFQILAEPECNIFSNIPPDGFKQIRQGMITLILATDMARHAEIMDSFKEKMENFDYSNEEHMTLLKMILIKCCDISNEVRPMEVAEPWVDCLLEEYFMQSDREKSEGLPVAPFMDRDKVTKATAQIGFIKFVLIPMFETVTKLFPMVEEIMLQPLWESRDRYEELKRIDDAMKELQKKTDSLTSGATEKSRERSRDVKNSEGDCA
Method in brief: as §1

[3] = biological target: T3, PDE1A (Homo sapiens, UniProt P54750); experiment: Phosphodiesterase enzyme screening assay, PDE1A
T3 construct: purchased Reaction Biology Corporation, Malvern, Pa
T3 sequence (P54750 whole entry): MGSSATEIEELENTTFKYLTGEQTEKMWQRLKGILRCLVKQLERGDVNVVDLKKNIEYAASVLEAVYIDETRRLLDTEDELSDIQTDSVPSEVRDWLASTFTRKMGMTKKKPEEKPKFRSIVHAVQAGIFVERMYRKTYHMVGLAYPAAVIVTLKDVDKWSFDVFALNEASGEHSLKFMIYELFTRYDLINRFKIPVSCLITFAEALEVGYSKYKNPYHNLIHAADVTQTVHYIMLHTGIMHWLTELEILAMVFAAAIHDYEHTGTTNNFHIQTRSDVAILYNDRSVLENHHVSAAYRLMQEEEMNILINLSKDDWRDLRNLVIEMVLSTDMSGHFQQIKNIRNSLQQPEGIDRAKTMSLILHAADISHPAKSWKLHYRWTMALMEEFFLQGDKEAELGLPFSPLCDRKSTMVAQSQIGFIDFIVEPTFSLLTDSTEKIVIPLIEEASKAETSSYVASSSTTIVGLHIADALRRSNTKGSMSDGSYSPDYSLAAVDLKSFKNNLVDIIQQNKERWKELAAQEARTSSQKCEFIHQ
Method in brief: as §1

[4] = Table 1, ratio of IC50 values, value greater than 1 indicates greater selectivity for PDE9A2
[5] = Table 1, 10 concentrations, 4.0 μM cGMP substrate, 1 hour at R.T., read-out: Band (PDE9A2 IC50)
[6] = ratio of IC50 values, value greater than 1 indicates greater selectivity for PDE9A2

T1 sequence (Q01064 whole entry): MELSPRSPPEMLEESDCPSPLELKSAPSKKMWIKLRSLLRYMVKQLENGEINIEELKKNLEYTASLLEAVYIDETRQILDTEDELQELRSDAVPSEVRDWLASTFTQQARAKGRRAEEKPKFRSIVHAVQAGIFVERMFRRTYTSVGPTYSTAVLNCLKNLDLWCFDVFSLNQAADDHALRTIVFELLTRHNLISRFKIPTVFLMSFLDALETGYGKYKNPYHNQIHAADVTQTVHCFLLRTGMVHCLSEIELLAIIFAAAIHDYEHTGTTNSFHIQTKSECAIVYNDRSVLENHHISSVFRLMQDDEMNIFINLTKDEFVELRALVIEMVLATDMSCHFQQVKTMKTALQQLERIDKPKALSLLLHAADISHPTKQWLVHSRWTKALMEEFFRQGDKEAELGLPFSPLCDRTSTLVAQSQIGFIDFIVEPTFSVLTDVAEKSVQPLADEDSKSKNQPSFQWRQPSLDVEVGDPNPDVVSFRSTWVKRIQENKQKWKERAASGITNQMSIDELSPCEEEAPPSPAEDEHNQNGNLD

SMILES | PDE1B selectivity (versus PDE9A2) [1, 4] | IC50 [2, 5] | PDE1A selectivity (versus PDE9A2) [3, 4] | further results
CC1CN(Cc2ccccc2C2CC2)CC1c1nn2c(C3CCOCC3)ncc2c(=O)[nH]1 (single isomer, unassigned; (-)) [(−)-2-((3,4-trans)-1-(2-cyclopropylbenzyl)-4-methylpyrrolidin-3-yl)-7-(tetrahydro-2H-pyran-4-yl)imidazo[5,1-f][1,2,4]triazin-4(3H)-one] | 505 | < 1000 nM | 685 | –
CC1CN(C(=O)c2ccccc2F)CC1c1nn2c(C3CCOCC3)ncc2c(=O)[nH]1 (single isomer, unassigned; (-)) [(−)-2-((3,4-trans)-1-(2-fluorobenzoyl)-4-methylpyrrolidin-3-yl)-7-(tetrahydro-2H-pyran-4-yl)imidazo[5,1-f][1,2,4]triazin-4(3H)-one] | 7 | < 1000 nM | 9 | –
CC1CN(C(=O)c2cccc(F)c2)CC1c1nn2c(C3CCOCC3)ncc2c(=O)[nH]1 (single isomer, unassigned; (-)) [(−)-2-((3,4-trans)-1-(3-fluorobenzoyl)-4-methylpyrrolidin-3-yl)-7-(tetrahydro-2H-pyran-4-yl)imidazo[5,1-f][1,2,4]triazin-4(3H)-one] | 26 | < 1000 nM | 26 | –
Cc1ccc(F)cc1-c1ncc2c(=O)[nH]c(C3CN(Cc4ccc(Cl)cc4)CC3C)nn12 (single isomer, unassigned; (-)) [(−)-2-((3,4-trans)-1-(4-chlorobenzyl)-4-methylpyrrolidin-3-yl)-7-(5-fluoro-2-methylphenyl)imidazo[5,1-f][1,2,4]triazin-4(3H)-one] | – | – | – | PDE1B selectivity (versus PDE9A2) ([1]; ratio of IC50 values PDE1B vs PDE9A2, value greater than 1 indicates greater selectivity for PDE9A2): 1735; IC50 ([2]; IC50 band, 4.0 μM cGMP substrate, 1 hour at R.T.): < 1000 nM; PDE1A selectivity (versus PDE9A2) ([3]; ratio of IC50 values PDE1A vs PDE9A2, value greater than 1 indicates greater selectivity for PDE9A2): 3375
CC1CN(Cc2ccc(-c3ccccc3)cc2)CC1c1nn2c(C3CCOCC3)ncc2c(=O)[nH]1 (single isomer, unassigned; (-)) [(−)-2-((3,4-trans)-1-([1,1′-biphenyl]-4-ylmethyl)-4-methylpyrrolidin-3-yl)-7-(tetrahydro-2H-pyran-4-yl)imidazo[5,1-f][1,2,4]triazin-4(3H)-one] | – | – | – | PDE1B selectivity (versus PDE9A2) [1, 6]: 2060; IC50 ([2]; read-out: Band (PDE9A2 IC50)): < 1000 nM; PDE1A selectivity (versus PDE9A2) [3, 6]: 2875
CC1CN(Cc2cn3cccnc3n2)CC1c1nn2c(C3CCOCC3)ncc2c(=O)[nH]1 (single isomer, unassigned; (-)) [(−)-2-((3,4-trans)-1-(imidazo[1,2-a]pyrimidin-2-ylmethyl)-4-methylpyrrolidin-3-yl)-7-(tetrahydro-2H-pyran-4-yl)imidazo[5,1-f][1,2,4]triazin-4(3H)-one] | 591 | < 1000 nM | 188 | –
CC1CN(Cc2cn3ncccc3n2)CC1c1nn2c(C3CCOCC3)ncc2c(=O)[nH]1 (single isomer, unassigned; (-)) [(−)-2-((3,4-trans)-1-(imidazo[1,2-b]pyridazin-2-ylmethyl)-4-methylpyrrolidin-3-yl)-7-(tetrahydro-2H-pyran-4-yl)imidazo[5,1-f][1,2,4]triazin-4(3H)-one] | 12 | < 1000 nM | 8 | –
CC1CN(Cc2ccc(-c3ccncc3)cc2)CC1c1nn2c(C3CCOCC3)ncc2c(=O)[nH]1 (single isomer, unassigned; (-)) [(−)-2-((3,4-trans)-4-methyl-1-(4-(pyridin-4-yl)benzyl)pyrrolidin-3-yl)-7-(tetrahydro-2H-pyran-4-yl)imidazo[5,1-f][1,2,4]triazin-4(3H)-one] | – | – | – | PDE1B selectivity (versus PDE9A2) ([1]; ratio of IC50 values, PDE1B versus PDE9A2, value greater than 1 = greater selectivity for PDE9A2): 1560; IC50 ([2]; Table 3, 4.0 μM cGMP substrate, 1 hour at R.T., read-out: Band (PDE9A2 IC50)): < 1000 nM; PDE1A selectivity (versus PDE9A2) ([3]; ratio of IC50 values, PDE1A versus PDE9A2, value greater than 1 = greater selectivity for PDE9A2): 679
CC1CN(Cc2ncc3ccccc3n2)CC1c1nn2c(C3CCOCC3)ncc2c(=O)[nH]1 (single isomer, unassigned; (-)) [(−)-2-((3,4-trans)-4-methyl-1-(quinazolin-2-ylmethyl)pyrroli] [(−)-2-((3,4-trans)-4-methyl-1-(quinazolin-2-ylmethyl)pyrrolidin-3-yl)-7-(tetrahydro-2H-pyran-4-yl)imidazo[5,1-f][1,2,4]triazin-4(3H)-one] | 2000 | < 1000 nM | 1213 | –
CC1CN(C(=O)c2ncc3ccccc3n2)CC1c1nn2c(C3CCOCC3)ncc2c(=O)[nH]1 (single isomer, unassigned; (-)) [(−)-2-((3,4-trans)-4-methyl-1-(quinazoline-2-carbonyl)pyrrolidin-3-yl)-7-(tetrahydro-2H-pyran-4-yl)imidazo[5,1-f][1,2,4]triazin-4(3H)-one] | 50 | < 1000 nM | 32 | –
CC1CN(C(=O)c2ccc3ccccc3n2)CC1c1nn2c(C3CCOCC3)ncc2c(=O)[nH]1 (single isomer, unassigned; (-)) [(−)-2-((3,4-trans)-4-methyl-1-(quinoline-2-carbonyl)pyrrolidin-3-yl)-7-(tetrahydro-2H-pyran-4-yl)imidazo[5,1-f][1,2,4]triazin-4(3H)-one] | 59 | < 1000 nM | 25 | –
CC1CN(C(=O)c2cccnc2)CC1c1nn2c(C3CCOCC3)ncc2c(=O)[nH]1 (single isomer, unassigned; (-)) [(−)-2-((3,4-trans)-4-methyl-1-nicotinoylpyrrolidin-3-yl)-7-(tetrahydro-2H-pyran-4-yl)imidazo[5,1-f][1,2,4]triazin-4(3H)-one] | 50 | < 1000 nM | 36 | –
CC1CN(C(=O)c2ccc(C#N)cc2)CC1c1nn2c(C3CCOCC3)ncc2c(=O)[nH]1 (single isomer, unassigned; (-)) [(−)-4-((3,4-trans)-3-methyl-4-(4-oxo-7-(tetrahydro-2H-pyran-4-yl)-3,4-dihydroimidazo[5,1-f][1,2,4]triazin-2-yl)pyrrolidine-1-carbonyl)benzonitrile] | 21 | < 1000 nM | 14 | –
CC1CN(Cc2ccc(C#N)cc2)CC1c1nn2c(C3CCOCC3)ncc2c(=O)[nH]1 (single isomer, unassigned; (-)) [(−)-4-(((3,4-trans)-3-methyl-4-(4-oxo-7-(tetrahydro-2H-pyran-4-yl)-3,4-dihydroimidazo[5,1-f][1,2,4]triazin-2-yl)pyrrolidin-1-yl)methyl)benzonitrile] | 1445 | < 1000 nM | 640 | –
CC1CN(CC2CCN(C(=O)OC(C)(C)C)CC2)CC1c1nn2c(C3CCOCC3)ncc2c(=O)[nH]1 (single isomer, unassigned; (-)) [(−)-tert-butyl (−)-4-(((3,4-trans)-3-methyl-4-(4-oxo-7-(tetrahydro-2H-pyran-4-yl)-3,4-dihydroimidazo[5,1-f][1,2,4]triazin-2-yl)pyrrolidin-1-yl)methyl)piperidine-1-carboxylate] | – | – | – | PDE1B selectivity (versus PDE9A2) [1, 6]: 262; IC50 ([2]; read-out: Band (PDE9A2 IC50)): < 1000 nM; PDE1A selectivity (versus PDE9A2) [3, 6]: 129

The next lines start with results.

PDE1B selectivity (versus PDE9A2) [1, 4] | IC50 [2, 5] | PDE1A selectivity (versus PDE9A2) [3, 4] | SMILES | further results
540 | < 1000 nM | 433 | CC1CN(Cc2nc3ccccc3[nH]2)CC1c1nn2c(C3CCOCC3)ncc2c(=O)[nH]1 (single isomer, unassigned; (-)) [(−)-2-((3,4-trans)-1-((1H-benzo[d]imidazol-2-yl)methyl)-4-methylpyrrolidin-3-yl)-7-(tetrahydro-2H-pyran-4-yl)imidazo[5,1-f][1,2,4]triazin-4(3H)-one] | –
550 | < 1000 nM | 465 | CC1CN(Cc2ccccc2)CC1c1nn2c(C3CCOCC3)ncc2c(=O)[nH]1 (single isomer, unassigned; (-)) [(−)-2-((3,4-trans)-1-benzyl-4-methylpyrrolidin-3-yl)-7-(tetr] [(−)-2-((3,4-trans)-1-benzyl-4-methylpyrrolidin-3-yl)-7-(tetrahydro-2H-pyran-4-yl)imidazo[1,5-f][1,2,4]triazin-4(3H)-one] | –
48 | < 1000 nM | 56 | CC1CN(Cc2ccc3ccccc3n2)CC1c1nn2c(C3CCOCC3)ncc2c(=O)[nH]1 (single isomer, unassigned; (-)) [(−)-2-((3,4-trans)-4-methyl-1-(quinolin-2-ylmethyl)pyrrolidi] [(−)-2-((3,4-trans)-4-methyl-1-(quinolin-2-ylmethyl)pyrrolidin-3-yl)-7-(tetrahydro-2H-pyran-4-yl)imidazo[5,1-f][1,2,4]triazin-4(3H)-one] | –
2610 | < 1000 nM | 334 | CC1CN(Cc2ccc3cccnc3c2)CC1c1nn2c(C3CCOCC3)ncc2c(=O)[nH]1 (single isomer, unassigned; (-)) [(−)-2-((3,4-trans)-4-methyl-1-(quinolin-7-ylmethyl)pyrrolidin-3-yl)-7-(tetrahydro-2H-pyran-4-yl)imidazo[5,1-f][1,2,4]triazin-4(3H)-one] | –
